Test results: patent US10406135B2, “Compositions containing isosorbide monoester and alcohols that contain at least one aromatic group” (Clariant International Ltd., priority 2011, dated 2019)
Read-outs that look alike come from different tables or passages of the source. Each block holds one compound with its values, some of them ahead of it.

Key:
[1] = tested on: bacteria, fungi and yeasts; conditions: general statement, no test described, cited from earlier work
Aspergillus brasiliensis = assay: Antimicrobial efficacy, minimum inhibitory concentration (MIC) in agar; assay type: cell-based; conditions: Sabouraud 4% dextrose agar pH 5.6, read-out: MIC of isosorbide
Method: (§1) Below, the antimicrobial efficacy of a composition according to the invention consisting of 50% by weight of isosorbide caprylate 1 and 50% by weight of phenoxyethanol against bacteria, fungi and yeasts is examined (hereinbelow, the composition is referred to as “composition A”). For the tests with bacteria, composition A was diluted with butyl polyglycol and then, at 50° C., added to liquid CASO agar (casein-peptone agar) buffered to pH 7 (+/−0.2) in various concentrations (hereinbelow referred to as compositions B1, B2, etc.). For the tests with fungi and yeasts, composition A was diluted with butyl polyglycol and then added to liquid Sabouraud 4% dextrose agar buffered to pH 5.6 (+/−0.2) in various concentrations (hereinbelow referred to as compositions PH1, PH2, etc.). The compositions B1, B2, etc. and PH1, PH2 etc. were each poured into Petri dishes and each inoculated with identical amounts of bacteria, fungi and yeasts. The minimum inhibitory concentration (MIC) is the concentration at which inhibition of the growth of the bacteria, fungi and yeasts in the compositions B1, B2, etc. and PH1, PH2, etc. occurs.
(§2) The minimum inhibitory concentrations for the pure substances isosorbide caprylate 1 and phenoxyethanol were determined analogously. […]
(§3) The values determined for the minimum inhibitory concentrations “QA” and “QB”, stated in Table 1 below, have already been corrected for the dilution effect of the butyl polyglycol. […]
(§4) Analogously to the determination of the antimicrobial activity according to the above example B), the antimicrobial activity of a mixture comprising, firstly, 89.6% by weight of isosorbide dicaprylate and 9.4% by weight of isosorbide monocaprylate (remainder: 1% by weight) (hereinbelow referred to as “isosorbide dicaprylate”) and, secondly, pure isosorbide was determined in further test series.

Aspergillus terreus = assay: as above; assay type: cell-based; conditions: Sabouraud 4% dextrose agar pH 5.6, read-out: MIC of isosorbide
Method: as §1, §2, §3, §4

Candida albicans = assay: as above; assay type: cell-based; conditions: Sabouraud 4% dextrose agar pH 5.6, read-out: MIC of isosorbide
Method: as §1, §2, §3, §4

Citrobacter freundii = assay: as above; assay type: cell-based; conditions: CASO agar pH 7, read-out: MIC of isosorbide
Method: as §1, §2, §3, §4

Enterobacter aerogenes = assay: as above; assay type: cell-based; conditions: Klebsiella aerogenes, CASO agar pH 7, read-out: MIC of isosorbide
Method: as §1, §2, §3, §4

Escherichia coli = assay: as above; assay type: cell-based; conditions: CASO agar pH 7, read-out: MIC of isosorbide
Method: as §1, §2, §3, §4

Fusarium solani = assay: as above; assay type: cell-based; conditions: Sabouraud 4% dextrose agar pH 5.6, read-out: MIC of isosorbide
Method: as §1, §2, §3, §4

Klebsiella pneumoniae = assay: as above; assay type: cell-based; conditions: CASO agar pH 7, read-out: MIC of isosorbide
Method: as §1, §2, §3, §4

Penicillium funicolosium = assay: as above; assay type: cell-based; conditions: Sabouraud 4% dextrose agar pH 5.6, read-out: MIC of isosorbide
Method: as §1, §2, §3, §4

Penicillium minioluteum = assay: as above; assay type: cell-based; conditions: Talaromyces minioluteus, Sabouraud 4% dextrose agar pH 5.6, read-out: MIC of isosorbide
Method: as §1, §2, §3, §4

Proteus vulgaris = assay: as above; assay type: cell-based; conditions: CASO agar pH 7, read-out: MIC of isosorbide
Method: as §1, §2, §3, §4

Pseudomonas aeruginosa = assay: as above; assay type: cell-based; conditions: CASO agar pH 7, read-out: MIC of isosorbide
Method: as §1, §2, §3, §4

Pseudomonas oleovorans = assay: as above; assay type: cell-based; conditions: Ectopseudomonas oleovorans, CASO agar pH 7, read-out: MIC of isosorbide
Method: (§5) Below, the antimicrobial efficacy of a composition according to the invention consisting of 50% by weight of isosorbide caprylate 1 and 50% by weight of phenoxyethanol against bacteria, fungi and yeasts is examined (hereinbelow, the composition is referred to as “composition A”). For the tests with bacteria, composition A was diluted with butyl polyglycol and then, at 50° C., added to liquid CASO agar (casein-peptone agar) buffered to pH 7 (+/−0.2) in various concentrations (hereinbelow referred to as compositions B1, B2, etc.). […]
(§6) The minimum inhibitory concentrations for the pure substances isosorbide caprylate 1 and phenoxyethanol were determined analogously.
(§7) The values determined for the minimum inhibitory concentrations “MIC mixture”, stated in Table 1 below, are based on the concentrations of composition A.
as §3, §4

Staphylococcus aureus = assay: as above; assay type: cell-based; conditions: CASO agar pH 7, read-out: MIC of isosorbide
Method: as §5, §6, §7, §3, §4

[2] = tested on: bacteria, fungi and yeasts; assay: Antimicrobial efficacy, summary statements over the organisms tested; assay type: cell-based
Method: Below, the antimicrobial efficacy of a composition according to the invention consisting of 50% by weight of isosorbide caprylate 1 and 50% by weight of phenoxyethanol against bacteria, fungi and yeasts is examined (hereinbelow, the composition is referred to as “composition A”). For the tests with bacteria, composition A was diluted with butyl polyglycol and then, at 50° C., added to liquid CASO agar (casein-peptone agar) buffered to pH 7 (+/−0.2) in various concentrations (hereinbelow referred to as compositions B1, B2, etc.). For the tests with fungi and yeasts, composition A was diluted with butyl polyglycol and then added to liquid Sabouraud 4% dextrose agar buffered to pH 5.6 (+/−0.2) in various concentrations (hereinbelow referred to as compositions PH1, PH2, etc.). […]
as §2, §4

Compound: CCCCCCCC(=O)O [caprylic acid]
antimicrobial activity (in words) ([1]; at a pH of 6 or above): no antimicrobial activity
antimicrobial activity (in words) [1]: antimicrobially effective

MIC (Aspergillus brasiliensis): 10000 µg/mL
MIC (Aspergillus terreus): 10000 µg/mL
MIC (Candida albicans): 10000 µg/mL
MIC (Citrobacter freundii): 10000 µg/mL
MIC (Enterobacter aerogenes): 10000 µg/mL
MIC (Escherichia coli): 10000 µg/mL
MIC (Fusarium solani): 10000 µg/mL
MIC (Klebsiella pneumoniae): 10000 µg/mL
MIC (Penicillium funicolosium): 10000 µg/mL
MIC (Penicillium minioluteum): 10000 µg/mL
MIC (Proteus vulgaris): 10000 µg/mL
MIC (Pseudomonas aeruginosa): 10000 µg/mL
MIC (Pseudomonas oleovorans): 10000 µg/mL
MIC (Staphylococcus aureus): 10000 µg/mL
Compound: O[C@@H]1CO[C@H]2[C@@H]1OC[C@@H]2O [isosorbide]
antimicrobial activity (in words) ([2]; summary of the MICs of Table 2): neither isosorbide nor isosorbide dicaprylate are antimicrobially active

Compound: isosorbide monocaprylate
antimicrobial activity (in words) ([2]; concluded from Tables 1 and 2, not tested as pure compound): significant antimicrobial activity
